In patent publication US11464749B2, “Bismuth-thiol compositions and methods of use” (Microbion Corporation, priority 2018, dated 2022):

Experiments:
[1] = Phase 1 human clinical studies, topical tolerability; assay type: in vivo; settings: humans
[2] = Single-dose rat PK comparing inhalation, IV and oral dosing
Protocol: Blood Collection for Bioanalytical Analysis: Following exposure, non-terminal blood collections were performed on 2 animals per sex at 0.5, 2, and 8 hours post exposure. Approximately 1 mL of systemic whole blood was collected by jugular vein into tubes containing K3EDTA as an anticoagulant. The tubes were flash frozen with liquid nitrogen stored without processing at −70 to −90° C. until shipping for analysis using ICP-MS assay for quantitation of bismuth as a surrogate for BisEDT.
Increasing the dose and interval leads to larger fluctuations in tissue and blood levels between peak (after dosing) and trough levels (prior to dosing).

[3] = Rat nose-only inhalation study: whole blood and lung BisEDT; assay type: in vivo, F344 rats; settings: single inhalation dose 47 μg/kg, 8 hr
Protocol: Inhalation Exposure: The initial exposure of BisEDT (Bismuth-1,2-ethanedithiol) was formulated as […] at 100 mg/mL in suspension in 0.5% TWEEN 80®, 10 mM sodium phosphate, pH 7.4, in NaCl (adjusted to approximately 300 mOsm). Aerosols were generated with a commercial compressed air jet nebulizer, PAD LC PLUS®, operated with an inlet pressure of 20 psi.
Detailed gross necropsies were performed on all animals (found dead, moribund, or scheduled necropsy) and consisted of a complete external and internal examination including body orifices and cranial, thoracic, and abdominal organs and tissues. All gross findings will be recorded in descriptive terms. […] Lungs collected and weighed.

[4] = 24 hours after single inhalation dose
[5] = 4 days (96 hrs) after single inhalation dose

## C1C[S][Bi]([S]CC[S][Bi]2[S]CC[S]2)[S]1 [BisEDT, bismuth-1,2-ethanedithiol]
[1]; 6 hours
  concentration well-tolerated when administered topically: up to 2500 μg/cm^2
[1]; over 21 days continuous exposure, normal and abraded skin
  concentration tolerated when administered topically: up to 75 μg/cm^2
[2]; 100 μg/kg IV
  lung levels after IV dosing vs inhalation group: < 5%
[2]; 100 μg/kg inhalation and IV and 250 μg/kg oral
  tolerability: tolerated
[2]; 250 μg/kg oral
  lung levels after oral dosing: no lung levels
[2]; [4]
  equated concentration in lung fluid: 123 µg/mL
  lung tissue concentration: 4,093 ng/g
[2]; [5]
  equated concentration in lung fluid: 78 µg/mL
  lung tissue concentration: 2,600 ng/g
[2]; IV dosing
  duration of initial distribution into tissues: 18 h
[2]; both, lung versus whole blood, inhaled, 100 μg/kg
  Kp: ~10
[3]
  Mean BisEDT Conc, whole blood: 114 ng/mL
